Like-named read-outs stand apart in the source and are kept apart here.
How the values were obtained:
MAGL [1] = target: MAGL (Homo sapiens (Human), UniProt Q99685); assay: In vitro competitive activity-based protein profiling (gel-based, FP-Rh or HT-01 probe); assay type: biochemical; conditions: for IC50: read-out: MAGL Human PC3 (IC50)
Description: In Vitro Competitive Activity-Based Protein Profiling.
Proteomes (human prefrontal cortex or cell membrane fractions) (50 μL, 1.0 mg/mL total protein concentration) were preincubated with varying concentrations of inhibitors at 37° C. After 30 min, FP-Rh or HT-01 (1.0 μL, 50 μM in DMSO) was added and the mixture was incubated for another 30 min at room temperature. Reactions were quenched with SDS loading buffer (15 μL—4×) and run on SDS-PAGE.

MAGL [2] = target: T1, MAGL (Mus musculus (Mouse), UniProt O35678); assay: Mouse brain proteomes from inhibitor treated mice (oral gavage, brain MAGL activity 4 h after administration); assay type: in vivo; conditions: 5 mg/kg oral gavage
Description: Preparation of Mouse Brain Proteomes from Inhibitor Treated Mice.
Inhibitors were administered to wild-type C57B1/6J by oral gavage in a vehicle of polyethylene glycol.

MAGL [3] = target: T1, MAGL; assay: In vitro competitive activity-based protein profiling, mouse brain proteome; assay type: biochemical; conditions: for inhibition at 1 µM: mouse; for IC50: mouse brain
[4] = human PC3, read-out: MAGL % Inhibition at 1 μM (human PC3)
[5] = human PFC (prefrontal cortex), read-out: MAGL % Inhibition at 1 μM (human PFC)

T1 sequence (O35678 whole entry): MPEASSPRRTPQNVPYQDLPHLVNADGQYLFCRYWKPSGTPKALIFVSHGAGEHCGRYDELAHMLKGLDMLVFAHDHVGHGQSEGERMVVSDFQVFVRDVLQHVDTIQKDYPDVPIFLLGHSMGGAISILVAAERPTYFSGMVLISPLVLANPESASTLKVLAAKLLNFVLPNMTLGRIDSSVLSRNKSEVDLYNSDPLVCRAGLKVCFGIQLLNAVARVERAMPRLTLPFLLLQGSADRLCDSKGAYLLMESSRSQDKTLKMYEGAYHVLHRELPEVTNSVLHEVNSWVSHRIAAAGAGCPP
Sequence of MAGL (Homo sapiens (Human), UniProt Q99685) (Q99685 whole entry): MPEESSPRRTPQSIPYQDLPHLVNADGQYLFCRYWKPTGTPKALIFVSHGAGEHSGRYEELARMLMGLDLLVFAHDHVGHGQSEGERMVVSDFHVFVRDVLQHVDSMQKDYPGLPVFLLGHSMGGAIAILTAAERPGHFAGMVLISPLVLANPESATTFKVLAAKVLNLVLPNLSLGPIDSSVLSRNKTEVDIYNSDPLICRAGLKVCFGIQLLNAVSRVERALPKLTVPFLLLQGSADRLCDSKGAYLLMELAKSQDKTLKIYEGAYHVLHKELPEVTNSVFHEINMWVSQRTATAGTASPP

Row | IC50 (MAGL [1]; human PC3) [nM] | inhibition at 1 µM (MAGL [3]) [%] | IC50 (MAGL [3]) [nM] | inhibition at 1 µM (MAGL [1]; [4]) [%] | inhibition at 1 µM (MAGL [1]; [5]) [%] | SMILES | MAGL % Inhibition at 5 mg/kg (Mouse) (MAGL [2])
1 | < 100 | > 75 | < 100 |  |  | O=C(OC(C(F)(F)F)C(F)(F)F)N1CCC2(CCCN2C(=O)c2cc3ccc(Cl)cc3s2)CC1 [Example 60, 1,1,1,3,3,3-Hexafluoropropan-2-yl 1-(6-chlorobenzo[b]thiophene-2-carbonyl)-1,8-diazaspiro[4.5] decane-8-carboxylate] | ### (% inhibition is greater than or equal to 75%)
2 | < 100 | > 75 | < 100 |  |  | CC(C)n1cc(CN2CCCC23CCN(C(=O)OC(C(F)(F)F)C(F)(F)F)CC3)c(-c2ccccc2F)n1 [Example 221, 1,1,1,3,3,3-Hexafluoropropan-2-yl 1-((3-(2-fluorophenyl)-1-isopropyl-1H-pyrazol-4-yl)methyl)-1,8-diazaspiro[4.5] decane-8-carboxylate] | ### (% inhibition is greater than or equal to 75%)
3 | < 100 | > 75 |  | > 75 | > 75 | O=C(OC(C(F)(F)F)C(F)(F)F)N1CCC2(CCCN2C(=O)c2cn3c(n2)CN(CC2CC2)CC3)CC1 [Example 154, 1,1,1,3,3,3-Hexafluoropropan-2-yl 1-(7-(cyclopropylmethyl)-5,6,7,8-tetrahydroimidazo[1,2-a]pyrazine-2-carbonyl)-1,8-diazaspiro[4.5] decane-8-carboxylate] | ### (% inhibition is greater than or equal to 75%)
4 | < 100 | > 75 |  | > 75 |  | CC1(NC(=O)c2cn3c(n2)CN(C(=O)C(C)(C)C)CC3)CCN(C(=O)OC(C(F)(F)F)C(F)(F)F)CC1 [Example 191, 1,1,1,3,3,3-Hexafluoropropan-2-yl 4-methyl-4-(7-pivaloyl-5,6,7,8-tetrahydroimidazo[1,2-a]pyrazine-2-carboxamido) piperidine-1-carboxylate] | # (% inhibition less or equal to 25%)
5 | < 100 | > 75 |  | > 75 | > 75 | CC1(NC(=O)c2nnc3n2CCN(C2CC2)C3)CCN(C(=O)OC(C(F)(F)F)C(F)(F)F)CC1 [Example 204, 1,1,1,3,3,3-Hexafluoropropan-2-yl 4-(7-cyclopropyl-5,6,7,8-tetrahydro-[1,2,4]triazolo[4,3-a]pyrazine-3-carboxamido)-4-methylpiperidine-1-carboxylate] | ### (% inhibition is greater than or equal to 75%)
6 | < 100 | > 75 |  | > 75 | > 75 | CC1(NC(=O)c2nnc3n2CCN(C2COC2)C3)CCN(C(=O)OC(C(F)(F)F)C(F)(F)F)CC1 [Example 207, 1,1,1,3,3,3-Hexafluoropropan-2-yl 4-methyl-4-(7-(oxetan-3-yl)-5,6,7,8-tetrahydro-[1,2,4]triazolo [4,3-a]pyrazine-3-carboxamido) piperidine-1-carboxylate] | ### (% inhibition is greater than or equal to 75%)
7 | < 100 | > 75 |  |  | > 75 | O=C(O)C1CCN(c2nc(C(F)(F)F)ccc2CN2CCCC23CCN(C(=O)OC(C(F)(F)F)C(F)(F)F)CC3)CC1 [Example 123, 1-(3-((8-(((1,1,1,3,3,3-Hexafluoropropan-2-yl)oxy)carbonyl)-1,8-diazaspiro[4.5]decan-1-yl)methyl)-6-(trifluoromethyl)pyridin-2-yl)piperidine-4-carboxylic acid] | ### (% inhibition is greater than or equal to 75%)
8 | < 100 | > 75 | < 100 |  |  | O=C(OC(C(F)(F)F)C(F)(F)F)N1CCC2(CCCN2Cc2cc(-c3ccc(F)cc3)on2)CC1 [Example 39, 1,1,1,3,3,3-Hexafluoropropan-2-yl 1-((5-(4-fluorophenyl)isoxazol-3-yl)methyl)-1,8-diazaspiro[4.5]decane-8-carboxylate] | ### (% inhibition is greater than or equal to 75%)
9 | < 100 | > 75 |  | > 75 | > 75 | COc1nccc(C2(C(=O)N3CCCC34CCN(C(=O)OC(C(F)(F)F)C(F)(F)F)CC4)CC2)n1 [Example 200, 1,1,1,3,3,3-Hexafluoropropan-2-yl 1-(1-(2-methoxypyrimidin-4-yl)cyclopropane-1-carbonyl)-1,8-diazaspiro [4.5]decane-8-carboxylate] | ### (% inhibition is greater than or equal to 75%)
